Data reported in patent publication US6552071B2, “Methods for treating cell death diseases and inflammation” (President and Fellows of Harvard College, priority 1999, dated 2003).

Key:
Type in all cases: cell-based
[1] = tested on: caspase-11; assay: LPS-induced caspase-11 expression in BalbC/3T3 cells, Western blot
Protocol: FIG. 27 is a graph of the inhibition of caspase-11 induction by synthetic wedelolactone. BalbC/3T3 cells were treated with 0, 30 μM, 40 μM, 60μM, 80 μM or 100 μM of wedelolactone for 1 hour and LPS for an additional 6 hours. The induction of caspase-11 was measured by Western blot analysis and quantification.
To identify modulators of caspase-11 expression or activity, a tissue culture model of caspase-11 induction was generated. In this model, BalbC/3T3 cells normally express undetectable levels of caspase-11 biological activity, as measured by Western blot analysis. […] A caspase-11 modulatory compound may be administered to the cells prior to administration of LPS, and then caspase-11 biological activity may be measured at a specific time after addition of LPS to the culture media of the cells. A caspase-11 modulatory compound that suppresses the LPS-induced biological activity of caspase-11 is considered to be a compound that modulates not only caspase-11 expression, but also cell death or inflammation.
BalbC/3T3 cells were next preincubated with an ethanol extract of the plant Eclipta prostrata L. (454 g of Eclipta prostrata L. was extracted into 8 ml of ethanol; 5 μl of extract/ml of tissue culture media was applied to the cell culture) for 6 hours, followed by treatment with LPS for 6 hours, as described above. The level of caspase-11 protein expression was then measured.

[2] = tested on: NF-κB; assay: NF-κB-luciferase reporter in LPS-treated BalbC/3T3 cells
Protocol: FIG. 5A is a graph of the effect of the active Eclipta prostrata L. fraction on induction of NF-κB and caspase-11. BalbC/3T3 cells were transfected with an NF-κB luciferase report construct and treated with the ethylacetate fraction of Eclipta prostrata L. ethylacetate extract (EA) or 11,12-dihydroxy coumestan (10 mg/ml) for 1 hour and then treated with 2 μg/ml LPS for 9 hours. Luciferase activity was then determined.
FIG. 28 is a graph of the inhibition of NF-κB activation by synthetic wedelolactone. BalbC/3T3 cells were transfected with NF-κB luciferase construct. Twelve hours later, cells were treated with 0, 20 μM, 40 μM, 60 μM, or 100 μM of wedelolactone for 1 hour and then 2 μg/ml LPS for additional 6 hours. Luciferase activity was then quantified.
Since caspase-11 is induced through the NF-κB pathway, wedelolactone (FIG. 3) may inhibit the activity of NF-κB. To examine this possibility, BalbC/3T3 cells were transfected with an NF-κB-luciferase reporter plasmid (containing an NF-κB response element).
The ability of synthetic wedelolactone to inhibit the activation of NF-κB induced by LPS was also assessed. BalbC/3T3 cells were transfected with a plasmid encoding an NF-κB-luciferase reporter protein in the presence of varying concentrations of wedelolactone. […] These experiments provided the final confirmation that wedelolactone is an inhibitor of NF-κB activation and caspase-11 induction. Thus, wedelolactone can be used to treat cell death diseases and inflammation.

[3] = tested on: STAT3; assay: Atlas DNA array mRNA expression in LPS-treated BalbC/3T3 cells; settings: 100 μM 1 h, then LPS 6 h
Source text: (§1) One hundred μM wedelolactone reduced the expression of NF-κB p105 mRNA in LPS-treated BalbC/3T3 cells at the ratio of 1 to 8.

[4] = tested on: STAT1; assay: as above; settings: 100 μM 1 h, then LPS 6 h
Source text: as §1

[5] = tested on: NF-κB p105 mRNA; assay: as above; settings: 100 μM 1 h, then LPS 6 h, versus LPS only
Source text: as §1

Row | Compound | Inhibition of caspase-11 expression ([1]; general statement in Example 3) | Inhibition of LPS induction of NF-κB luciferase activity (FIG. 5A) ([2]; 1 hour pre-treatment, 2 μg/ml LPS 9 hours, coumestan 10 mg/ml) | STAT3 expression level, % of control cells treated with LPS only [3] [%] | STAT1 expression level, % of control cells treated with LPS only [4] [%] | Reduction of NF-κB p105 mRNA expression, ratio [5] | Suppression of LPS-induced caspase-11 expression ([1]; 70 μg/ml, 6 hour pre-treatment, then LPS) | IC50 ([1]; BALB/c3T3, BalbC/3T3 cells, wedelolactone 1 hour, LPS additional 6 hours, read-out: IC50, inhibition of induction of caspase-11 by LPS) [µM] | Inhibition of LPS-induced activation of the NF-κB promoter (FIG. 28) ([2]; 0-100 μM 1 hour, 2 μg/ml LPS 6 hours, same concentration range as caspase-11 inhibition) | Inhibition of NF-κB transcriptional activity induced by LPS ([2]; 60 and 100 μM)
1 | O=c1oc2ccccc2c2oc3cc(O)c(O)cc3c12 [11,12-dihydroxy coumestan, reference compound] | does not inhibit caspase-11 expression | did not inhibit NF-κB induction |  |  |  |  |  |  | 
2 | COc1cc(O)c2c(c1)oc(=O)c1c3cc(O)c(O)cc3oc21 [wedelolactone] |  |  | 30 | 4 | 1 to 8 | suppressed caspase-11 expression | ~50 | inhibited the activation of the NF-κB promoter | inhibited the NF-κB transcriptional activity
